Experimental data published in patent US20040087571A1, “Methods of using CCR1 antagonists as immunomodulatory agents” (Pfizer Inc, priority 2002, published 2004).
Blank lines part the entries; values can stand above or below the compound they belong to.

Compound: CCCC1CCC(O)([C@H](C[C@H](O)[C@H](Cc2ccccc2)NC(=O)c2cnc3ccccc3n2)C(=O)NO)CC1 (stereo partly drawn) [Example 301, Quinoxaline-2-carboxylic acid [1(S)-benzyl-2(S)-hydroxy-4(S)-hydroxycarbamoyl-4-(1-hydroxy-4-propyl-cyclohexyl)-butyl]-amide]
melting point: 115 to 117 °C

Compound: NC(=O)[C@@H](C[C@H](O)[C@H](Cc1ccccc1)NC(=O)c1cnc2ccccc2n1)C1CCCC1 [Example 171, Quinoxaline-2-carboxylic acid (1(S)-benzyl-4-carbamoyl-4(S)-cyclopentyl-2(S)-hydroxy-butyl)-amide]
melting point: 126 to 128 °C

Compound: COc1cc(CCNC(=O)[C@H](CCC(C)(C)F)C[C@H](O)[C@H](Cc2ccccc2)NC(=O)c2cnc3ccccc3n2)cc(OC)c1 [Example 232, Quinoxaline-2-carboxylic acid {1(S)-benzyl-4(R)-[2-(3,5-dimethoxy-phenyl)-ethylcarbamoyl]-7-fluoro-2(S)-hydroxy-7-methyl-octyl}-amide]
melting point: 109 to 112 °C

Compound: CCCC1CCC(O)([C@H](C[C@H](O)[C@H](Cc2ccccc2)NC(=O)c2cnc3ccccc3n2)C(N)=O)CC1 (stereo partly drawn) [Example 300, Quinoxaline-2-carboxylic acid [1(S)-benzyl-4(S)-carbamoyl-2(S)-hydroxy-4-(1-hydroxy-4-propyl-cyclohexyl)-butyl]-amide]
melting point: 227 to 228 °C

Compound: NC(=O)[C@@H](C[C@H](O)[C@H](Cc1ccccc1)NC(=O)c1cnc2ccccc2c1)C1CCCCC1 [Example 261, Quinoline-3-carboxylic acid (1(S)-benzyl-4(S)-carbamoyl-4-cyclohexyl-2(S)-hydroxy-butyl)-amide]
melting point: 231 °C

Compound: O=C(N[C@@H](Cc1ccccc1)[C@@H](O)C[C@@H](Cc1ccccc1)C(=O)NO)c1cnc2ccccc2n1 [Example 276, Quinoxaline-2-carboxylic acid (1(S)-benzyl-2(S)-hydroxy-4(R)-hydroxycarbamoyl-5-phenyl-pentyl)-amide]
melting point: 190 to 192 °C

Compound: CNC(=O)[C@H](CC(C)C)C[C@H](O)[C@H](Cc1ccc2ccccc2c1)NC(=O)c1cnc2ccccc2n1 [Example 127, Quinoxaline-2-carboxylic acid (2(S)-hydroxy-6-methyl-4(R)-methylcarbamoyl-1(S)-naphthalen-2-ylmethyl-heptyl)-amide]
melting point: 121 to 123 °C

Compound: O=C(N[C@@H](Cc1ccccc1)[C@@H](O)C[C@H](C(=O)NO)C1(O)CCCCCC1)c1cnc2ccccc2n1 [Example 291, Quinoxaline-2-carboxylic acid [1(S)-benzyl-2(S)-hydroxy-4(S)-hydroxycarbamoyl-4-(1-hydroxy-cycloheptyl)-butyl]-amide]
melting point: 118 to 119 °C

Compound: NC(=O)[C@@H](C[C@H](O)[C@H](Cc1ccccc1)NC(=O)c1cnc2ccccc2n1)C1(O)CCC(F)(F)CC1 [Example 306, Quinoxaline-2-carboxylic acid [1(S)-benzyl-4(S)-carbamoyl-4-(4,4-difluoro-1-hydroxy-cyclohexyl)-2(S)-hydroxy-butyl]-amide]
melting point: 207.5 to 208.5 °C

Other lines, results leading:

melting point: 99 to 101 °C
Compound: COc1cccc(CNC(=O)[C@H](CCC(C)(C)F)C[C@H](O)[C@H](Cc2ccccc2)NC(=O)c2cnc3ccccc3n2)c1OC [Example 242, Quinoxaline-2-carboxylic acid [1(S)-benzyl-4(R)-(2,3-dimethoxy-benzylcarbamoyl)-7-fluoro-2(S)-hydroxy-7-methyl-octyl]-amide]

melting point: 185.5 to 187.5 °C
Compound: CC(C)(F)CC[C@H](C[C@H](O)[C@H](Cc1ccc(I)cc1)NC(=O)c1cnc2ccccc2n1)C(N)=O [Example 250, Quinoxaline-2-carboxylic acid [4(R)-carbamoyl-7-fluoro-2(S)-hydroxy-1(S)-(4-iodo-benzyl)-7-methyl-octyl]-amide]

melting point: 147 to 149 °C
Compound: CC(C)(F)CC[C@H](C[C@H](O)[C@H](Cc1ccccc1)NC(=O)c1cnc2ccccc2n1)C(=O)NN [Example 312, Quinoxaline-2-carboxylic acid (1(S)-benzyl-7-fluoro-4(R)-hydrazinocarbonyl-2(S)-hydroxyl-7-methyl-octyl)-amide]

melting point: 168 to 171 °C
Compound: Cc1ccccc1C[C@H](C[C@H](O)[C@H](Cc1ccccc1)NC(=O)c1cnc2ccccc2n1)C(N)=O [Example 275, Quinoxaline-2-carboxylic acid (1(S)-benzyl-4(R)-carbamoyl-2(S)-hydroxy-5-o-tolyl-pentyl)-amide]

melting point: 217 to 219 °C
Compound: CC(C)(F)CC[C@H](C[C@H](O)[C@H](Cc1ccccc1)NC(=O)c1cnc2ccccc2n1)C(=O)N1CCC[C@H]1CO [Example 239, Quinoxaline-2-carboxylic acid [1(S)-benzyl-7-fluoro-2(S)-hydroxy-4(R)-(2(S)-hydroxymethyl-pyrrolidine-1-carbonyl)-7-methyl-octyl]-amide]

melting point: 146 to 148 °C
Compound: CC(C)CNC(=O)CC[C@H](O)[C@H](Cc1ccccc1)NC(=O)c1cnc2ccccc2n1 [Example 294, Quinoxaline-2-carboxylic acid (1(S)-benzyl-2(S)-hydroxy-4-isobutylcarbamoyl-butyl)-amide]

melting point: 225 to 227 °C
Compound: CC(C)(F)CC[C@H](C[C@H](O)[C@H](Cc1cccc(F)c1)NC(=O)c1cnc2ccccc2n1)C(N)=O [Example 245, Quinoxaline-2-carboxylic acid [4(R)-carbamoyl-7-fluoro-1(S)-(3-fluoro-benzyl)-2(S)-hydroxy-7-methyl-octyl]-amide]

melting point: 147 to 148 °C
Compound: CC(C)(O)CC[C@H](C[C@H](O)[C@H](Cc1ccccc1F)NC(=O)c1cnc2ccccc2n1)C(N)=O [Example 321, Quinoxaline-2-carboxylic acid [4(R)-carbamoyl-1(S)-(2-fluoro-benzyl)-2(S),7-dihydroxy-7-methyl-octyl]-amide]

melting point: 114 to 115 °C
Compound: COc1ccc(CNC(=O)[C@H](CCC(C)(C)F)C[C@H](O)[C@H](Cc2ccccc2)NC(=O)c2cnc3ccccc3n2)cc1 [Example 236, Quinoxaline-2-carboxylic acid [1(S)-benzyl-7-fluoro-2(S)-hydroxy-4(R)-(4-methoxy-benzylcarbamoyl)-7-methyl-octyl]-amide]

melting point: 206 to 207 °C
Compound: CC(C)(F)CC[C@H](C[C@H](O)[C@H](Cc1ccc(Cl)c(Cl)c1)NC(=O)c1cnc2ccccc2n1)C(N)=O [Example 155, Quinoxaline-2-carboxylic acid [4(R)-carbamoyl-1(S)-(3,4-dichloro-benzyl)-7-fluoro-2(S)-hydroxy-7-methyl-octyl]-amide]

melting point: 171 to 173 °C
Compound: NC(=O)[C@H](Cc1ccccc1F)C[C@H](O)[C@H](Cc1ccccc1)NC(=O)c1cnc2ccccc2n1 [Example 280, Quinoxaline-2-carboxylic acid [1(S)-benzyl-4(R)-carbamoyl-5-(2-fluoro-phenyl)-2(S)-hydroxy-pentyl]-amide]

melting point: 150 to 153 °C
Compound: CC(C)(O)CC[C@H](C[C@H](O)[C@H](Cc1ccc(F)c(F)c1)NC(=O)c1cnc2ccccc2n1)C(=O)NO [Example 322, Quinoxaline-2-carboxylic acid [1(S)-(3,4-difluoro-benzyl)-2(S),7-dihydroxy-4(R)-hydroxycarbamoyl-7-methyl-octyl]-amide]
